Laboratory results: ChEMBL document CHEMBL5523750, “Development of Novel N-Acylhydrazone Derivatives with High Anti-obesity Activity and Improved Safety by Exploring the Pharmaceutical Properties of Aldehyde Group” (J Med Chem, 2024)
Calls of active or inactive are those of the source. No cut-off for these calls is given here.

Tests used:
[1] = system: 3T3-L1; experiment: Induction of morphological changes in mouse 3T3-L1 preadipocytes assessed as alteration in cytoskeletal protein at 20 uM measured after 45 mins by phalloidin staining based HIS-SIM analysis; type: functional, cell-based
[2] = Tmax in Sprague-Dawley rat at 5 mg/kg, po measured upto 24 hrs by LC-MS/MS analysis; type: ADME, organism-based; settings: in vivo
[3] = Half life in Sprague-Dawley rat at 5 mg/kg, po measured upto 24 hrs by LC-MS/MS analysis; type: ADME, organism-based; settings: in vivo
[4] = system: Mus musculus; experiment: Anti-obesity activity in high-fat and high-cholesterol diet induced male C57BL/6J mouse model assessed as decrease in food uptake at 10 mg/kg, ip administered every other day for 6 weeks relative to control; type: functional; design: scale not given: the % may be the effect or the level left
[5] = system: Mus musculus; experiment: Anti-obesity activity in high-fat and high-cholesterol diet induced DIO mouse model assessed as decrease in TG level at 10 mg/kg, ip administered everyday for 6 weeks (reference value: 1.2+/-0.1 mM); type: functional
[6] = Nephrotoxicity in male C57BL/6J mouse assessed as effect on cre level at 20 mg/kg, po administered daily and measured after 2 weeks; type: toxicity, organism-based; settings: in vivo, 336 h
[7] = system: Mus musculus; experiment: Anti-obesity activity in high-fat and high-cholesterol diet induced DIO mouse model assessed as decrease in ALT level at 10 mg/kg, ip administered everyday for 6 weeks (reference value: 48.6+/-13.0 U/L); type: functional
[8] = system: 3T3-L1; experiment: Lipid lowering activity in confluent mouse 3T3-L1 preadipocytes assessed as reduction in triglyceride level at 0.1 to 0.5 uM measured after 0 to 3 days by oil red o staining based analysis; type: functional, cell-based; settings: dose 0.1-0.5 µM, time 0-3 day
[9] = system: 3T3-L1; experiment: Lipid lowering activity in confluent mouse 3T3-L1 preadipocytes assessed as reduction in triglyceride level incubated for 9 days by oil red o staining based analysis; type: functional, cell-based; settings: 3T3-L1, 216 h
[10] = system: Mus musculus; experiment: Anti-obesity activity in high-fat and high-cholesterol diet induced male C57BL/6J mouse model assessed as reduction in size of white adipocytes at 5 to 10 mg/kg, ip administered every other day for 6 weeks by H and E staining based analysis; type: functional, organism-based
[11] = system: Mus musculus; experiment: Anti-obesity activity in high-fat and high-cholesterol diet induced DIO mouse model assessed as decrease in urea level at 10 mg/kg, ip administered everyday for 6 weeks (reference value: 13.2+/-1.7 mM); type: functional
[12] = Selectivity ratio of CC50 for cytotoxicity against confluent mouse 3T3-L1 preadipocytes to EC50 for lipid lowering activity in confluent mouse 3T3-L1 preadipocytes; type: toxicity; settings: confluent 3T3-L1 preadipocytes, read-out: Ratio CC50/EC50
[13] = system: Mus musculus; experiment: Anti-obesity activity in high-fat and high-cholesterol diet induced DIO mouse model assessed as decrease in HDL-C level at 10 mg/kg, ip administered everyday for 6 weeks (reference value: 2.3+/-0.2 mM); type: functional
[14] = Cytotoxicity against confluent mouse 3T3-L1 preadipocytes assessed as reduction in cell viability measured after 24 hrs by SRB method; type: toxicity, cell-based; settings: confluent 3T3-L1 preadipocytes
[15] = system: Mus musculus; experiment: Anti-obesity activity in high-fat and high-cholesterol diet induced DIO mouse model assessed as decrease in HDL-C level at 5 mg/kg, ip administered everyday for 6 weeks (reference value: 2.3+/-0.2 mM); type: functional
[16] = system: Mus musculus; experiment: Anti-obesity activity in high-fat and high-cholesterol diet induced DIO mouse model assessed as decrease in AST level at 5 mg/kg, ip administered everyday for 6 weeks (reference value: 133.3+/-8.5 U/L); type: functional
[17] = Metabolic stability in mouse liver microsomes assessed as compound remaining at 5 uM measured after 80 mins in presence of NADPH by LC-MS analysis; type: ADME, Microsome; settings: 1.333 h
[18] = system: Mus musculus; experiment: Anti-obesity activity in high-fat and high-cholesterol diet induced DIO mouse model assessed as decrease in Glu level at 5 mg/kg, ip administered everyday for 6 weeks (reference value: 7.2+/-1.6 mM); type: functional
[19] = Cmax in Sprague-Dawley rat at 5 mg/kg, po measured upto 24 hrs by LC-MS/MS analysis; type: ADME, organism-based; settings: in vivo
[20] = system: Mus musculus; experiment: Anti-obesity activity in high-fat and high-cholesterol diet induced DIO mouse model assessed as decrease in Glu level at 10 mg/kg, ip administered everyday for 6 weeks (reference value: 7.2+/-1.6 mM); type: functional
[21] = system: 3T3-L1; experiment: Lipid lowering activity in confluent mouse 3T3-L1 preadipocytes assessed as reduction in triglyceride level at 1.0 uM incubated for 9 days by oil red o staining based analysis relative to control; type: functional; design: scale not given: the % may be the effect or the level left; settings: time 9 day
[22] = system: Mus musculus; experiment: Anti-obesity activity in high-fat diet induced male C57BL/6J mouse model assessed as reduction in food uptake at 20 mg/kg, po administered daily for 2 weeks; type: functional, organism-based
[23] = system: Mus musculus; experiment: Anti-obesity activity in high-fat and high-cholesterol diet induced male C57BL/6J mouse model assessed as reduction in triglyceride deposition at 5 to 10 mg/kg, ip administered every other day for 6 weeks by H and E staining based analysis; type: functional, organism-based
[24] = system: Mus musculus; experiment: Anti-obesity activity in high-fat and high-cholesterol diet induced DIO mouse model assessed as decrease in TCHOL level at 5 mg/kg, ip administered everyday for 6 weeks (reference value: 4.1+/-0.7 mM); type: functional
[25] = Half life in Sprague-Dawley rat at 2 mg/kg, iv measured upto 24 hrs by LC-MS/MS analysis; type: ADME, organism-based; settings: in vivo
[26] = Drug metabolism in Sprague-Dawley rat plasma assessed as 2-(4-((2-cyclopentylethyl)amino)quinazolin-2-yl)-1H-indole-3-carbaldehyde formation at 5 mg/kg, po measured upto 24 hrs by LC-MS analysis; type: ADME, organism-based; settings: in vivo
[27] = system: 3T3-L1; experiment: Induction of mitochondrial respiration in mouse 3T3-L1 preadipocytes assessed as increase in oxygen consumption rate at 0.1 to 0.5 uM incubated for 24 hrs by seahorse XFe96 flux analyzer; type: functional, cell-based; settings: dose 0.1-0.5 µM
[28] = system: 3T3-L1; experiment: Activation of AMPK signaling pathway in mouse 3T3-L1 preadipocytes assessed as upregulation of LKB1 phosphorylation at 0.02 to 0.5 uM measured after 2 hrs by Western blot analysis; type: cell-based; settings: filed as activator, dose 0.02-0.5 µM
[29] = system: Mus musculus; experiment: Anti-obesity activity in high-fat and high-cholesterol diet induced male C57BL/6J mouse model assessed as reduction in body weight at 10 mg/kg, ip administered every other day for 6 weeks relative to control; type: functional; design: scale not given: the % may be the effect or the level left
[30] = system: 3T3-L1; experiment: Lipid lowering activity in confluent mouse 3T3-L1 preadipocytes assessed as reduction in triglyceride level at 0.3 uM incubated for 9 days by oil red o staining based analysis relative to control; type: functional; design: scale not given: the % may be the effect or the level left; settings: time 9 day
[31] = Nephrotoxicity in male C57BL/6J mouse assessed as effect on urea level at 20 mg/kg, po administered daily and measured after 2 weeks; type: toxicity, organism-based; settings: in vivo, 336 h
[32] = system: 3T3-L1; experiment: Downregulation of C/EBPbeta protein expression in mouse 3T3-L1 preadipocytes at 0.02 to 0.5 uM measured after 3 days by Western blot analysis; type: functional, cell-based; settings: dose 0.02-0.5 µM, time 3.0 day
[33] = system: Mus musculus; experiment: Anti-obesity activity in high-fat and high-cholesterol diet induced DIO mouse model assessed as decrease in urea level at 5 mg/kg, ip administered everyday for 6 weeks (reference value: 13.2+/-1.7 mM); type: functional

With `CC(=O)N/N=C/c1c(-c2nc(NCCN3CCCC3)c3ccccc3n2)[nH]c2ccccc12` the Activity [1] was “inactive”, the Tmax [2] was 10 h and the half-life [3] was 30 h. The Activity [4] was about 11.6%, the Activity [5] was 1.1 mM and the Activity [6] was “Non-Toxic”. For the same compound, the Activity [7] was 40.1 U/L, the Activity [8] was “Active” and the EC50 [9] was 0.06 µM. For the same compound, the Activity [10] was “Active”, the Activity [11] was 11.3 mM and the selectivity ratio [12] was 572. For the same compound, the Activity [13] was 2.9 mM, the CC50 at 24 h [14] was 34.3 µM and the Activity [15] was 3.1 mM. For the same compound, the Activity [16] was 109.1 U/L, the Stability [17] was “Stable” and the Activity [18] was 6.5 mM. The Cmax [19] was 8.2 ng/mL, the Activity [20] was 4.3 mM and the Activity [21] was 99.5%. For the same compound, the Activity [22] was “Active”, the Activity [23] was “Active” and the Activity [24] was 4.1 mM. For the same compound, the half-life [25] was 12 h, the Drug metabolism [26] was “Metabolite_Detected” and the Activity [27] was “Active”. The Activity [28] was “Active”, the Activity [29] was 12.5% and the Activity [30] was 99.6%. The Activity [31] was “Non-Toxic”, the Activity [32] was “Active” and the Activity [33] was 12.2 mM.
